According to patent publication US12528761B2, “Thyromimetics” (Autobahn Therapeutics, Inc., priority 2020, dated 2026):

Target: T1, recombinant human FAAH (rhFAAH) (Homo sapiens, UniProt O00519)
T1 construct: purchased Cayman Chemical (Ann Arbor, MI, USA)
T1 sequence (O00519 1-579): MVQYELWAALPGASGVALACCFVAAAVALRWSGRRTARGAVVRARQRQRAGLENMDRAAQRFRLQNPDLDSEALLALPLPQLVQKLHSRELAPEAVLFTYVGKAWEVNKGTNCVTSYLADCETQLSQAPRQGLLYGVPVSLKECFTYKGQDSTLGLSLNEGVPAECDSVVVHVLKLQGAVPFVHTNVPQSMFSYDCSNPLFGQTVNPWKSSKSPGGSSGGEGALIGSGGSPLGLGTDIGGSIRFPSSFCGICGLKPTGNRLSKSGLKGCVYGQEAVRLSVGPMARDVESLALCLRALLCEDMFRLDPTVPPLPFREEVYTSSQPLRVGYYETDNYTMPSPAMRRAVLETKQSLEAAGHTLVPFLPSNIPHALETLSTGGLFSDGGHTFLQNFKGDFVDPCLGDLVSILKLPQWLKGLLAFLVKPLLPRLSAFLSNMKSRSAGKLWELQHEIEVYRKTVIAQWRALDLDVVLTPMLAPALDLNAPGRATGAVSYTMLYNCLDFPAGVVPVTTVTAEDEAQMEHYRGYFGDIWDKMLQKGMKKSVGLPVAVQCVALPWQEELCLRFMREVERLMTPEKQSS
Assay: FAAH substrate evaluation (formation of acid metabolite, LC-MS/MS)
Type: biochemical
Parameters: key: A: ke is equal to or less than 1.0; B: ke is greater than 1.0 and less than or equal to 2.5; C: ke is greater than 2.5; NC: no conversion
Conditions: 0.5 ng/μL rhFAAH, 1 μM test compound, pH 8.0, room temperature, 0-60 minutes
Method: Purified recombinant human FAAH (rhFAAH) was purchased from Cayman Chemical (Ann Arbor, MI, USA). The total volume for each incubation was 400 μL containing a final 0.5 ng/μL rhFAAH, 1 μM test compound, 1.25% ethanol or 1 μM PF-3845 (FAAH inhibitor), and 0.1% bovine serum albumin in Tris-EDTA buffer at pH 8.0). The positive control was LL-341001. The incubation was conducted at the room temperature. At 0, 5, 15, 30 and 60 minutes, an aliquot of 30 μL reaction mixtures was removed and mixed with 300 μL acetonitrile containing 5 ng/mL terfenadine and 10 ng/mL tolbutamide as internal standards to quench the reaction. The resulting mixture was centrifuged at 4000 rpm, 4° C. for 15 minutes, and 100 μL supernatant was ready for LC-MS/MS analysis to measure the formation of acid metabolite.
Acquity Ultra Performance LC system from Waters was used for sample analysis. The chromatography was performed on a reverse phase Kinetex 2.6 μm C18 column, 2.1×30 mm, 100 Å. The mobile phase A comprised of 0.1% formic acid in water and mobile phase B comprised of 0.1% formic acid in acetonitrile with a 2-min run time at the flow rate of 0.8 mL/min for the acid metabolite from positive control or a 1.5 min run time at the flow rate of 0.9 mL/min for the acid metabolite of test compounds. The mass spectrometer (API-5500 and API Q Trap 4000 Applied Biosystems/MDS SCIEX Instruments, Framingham, MA, USA) was operated under ESI positive or negative ion MRM mode.
The formation of acid metabolite was monitored and quantified using one calibration point of 1 μM. The observed rate constant (ke) for the acid metabolite formation was calculated by plotting the metabolite concentration versus time of incubation with the slope being ke and is shown in Table 4.

Row | SMILES | ke, observed rate constant for the acid metabolite formation
1 | CNC(=O)CSc1cc(Cl)c(Cc2ccc(O)c(C(C)C)c2)c(C)c1F [Compound 220, 2-((5-chloro-2-fluoro-4-(4-hydroxy-3-isopropylbenzyl)-3-methylphenyl)thio)-N-methylacetamide] | NC
2 | Cc1noc(NC(=O)CSc2cc(Cl)c(Cc3ccc(O)c(C(C)C)c3)c(Cl)c2)c1C [Compound 168, 2-((3,5-dichloro-4-(4-hydroxy-3-isopropylbenzyl)phenyl)thio)-N-(3,4-dimethylisoxazol-5-yl)acetamide] | B (ke is greater than 1.0 and less than or equal to 2.5)
3 | Cc1cc(CSCC(N)=O)cc(Cl)c1Cc1ccc(O)c(C(C)C)c1 [Compound 232, 2-((3-chloro-4-(4-hydroxy-3-isopropylbenzyl)-5-methylbenzyl)thio)acetamide] | C (ke is greater than 2.5)
4 | CNC(=O)CSCc1cc(Cl)c(Cc2ccc(O)c(C(C)C)c2)c(C)c1F [Compound 219, 2-((5-chloro-2-fluoro-4-(4-hydroxy-3-isopropylbenzyl)-3-methylbenzyl)thio)-N-methylacetamide] | A (ke is equal to or less than 1.0)
5 | CC(C)c1cc(Cc2c(Cl)cc(SCC(=O)NC34CC(C3)C4)cc2Cl)ccc1O [Compound 178, N-(bicyclo[1.1.1]pentan-1-yl)-2-((3,5-dichloro-4-(4-hydroxy-3-isopropylbenzyl)phenyl)thio)acetamide] | NC
6 | CNC(=O)CSCc1cc(Cl)c(Cc2ccc(O)c(C(C)C)c2)c(Cl)c1 [Compound 193, 2-((3,5-dichloro-4-(4-hydroxy-3-isopropylbenzyl)benzyl)thio)-N-methylacetamide] | NC
7 | CNC(=O)Cc1cc(Cl)c(Cc2ccc(O)c(C(C)C)c2)c(Cl)c1 [Compound 7, 2-(3,5-dichloro-4-(4-hydroxy-3-isopropylbenzyl)phenyl)-N-methylacetamide] | NC
8 | Cc1cc(CSCC(=O)N(C)C)cc(Cl)c1Cc1ccc(O)c(C(C)C)c1 [Compound 231, 2-((3-chloro-4-(4-hydroxy-3-isopropylbenzyl)-5-methylbenzyl)thio)-N,N-dimethylacetamide] | A (ke is equal to or less than 1.0)
9 | CNC(=O)/C=C/c1cc(C)c(Cc2ccc(O)c(C(C)C)c2F)c(Cl)c1 [Compound 239, (E)-3-(3-chloro-4-(2-fluoro-4-hydroxy-3-isopropylbenzyl)-5-methylphenyl)-N-methylacrylamide] | NC
10 | CCNC(=O)CSc1cc(Cl)c(Cc2ccc(O)c(C(C)C)c2F)c(Cl)c1 [Compound 187, 2-((3,5-dichloro-4-(2-fluoro-4-hydroxy-3-isopropylbenzyl)phenyl)thio)-N-ethylacetamide] | A (ke is equal to or less than 1.0)
11 | CC(C)c1cc(Cc2c(Cl)cc(SCC(=O)NCC3CC3)cc2Cl)ccc1O [Compound 181, N-(cyclopropylmethyl)-2-((3,5-dichloro-4-(4-hydroxy-3-isopropylbenzyl)phenyl)thio)acetamide] | A (ke is equal to or less than 1.0)
12 | C=C(Cc1cc(Cl)c(Cc2ccc(O)c(C(C)C)c2F)c(Cl)c1)C(=O)NC [Compound 177, 2-(3,5-dichloro-4-(2-fluoro-4-hydroxy-3-isopropylbenzyl)benzyl)-N-methylacrylamide] | NC
13 | Cc1cc(SCC(N)=O)cc(Cl)c1Cc1ccc(O)c(C(C)C)c1F [Compound 234, 2-((3-chloro-4-(2-fluoro-4-hydroxy-3-isopropylbenzyl)-5-methylphenyl)thio)acetamide] | C (ke is greater than 2.5)
14 | CC(C)c1cc(Cc2c(Cl)cc(SCC(=O)Nc3cnccn3)cc2Cl)ccc1O [Compound 171, 2-((3,5-dichloro-4-(4-hydroxy-3-isopropylbenzyl)phenyl)thio)-N-(pyrazin-2-yl)acetamide] | B (ke is greater than 1.0 and less than or equal to 2.5)
15 | CC(C)c1cc(Cc2c(Cl)cc(SCC(=O)Nc3ccncc3)cc2Cl)ccc1O [Compound 172, 2-((3,5-dichloro-4-(4-hydroxy-3-isopropylbenzyl)phenyl)thio)-N-(pyridin-4-yl)acetamide] | C (ke is greater than 2.5)
16 | CNC(=O)Cc1cc(Cl)c(Cc2ccc(O)c(C(C)C)c2F)c(Cl)c1 [Compound 33, 2-(3,5-dichloro-4-(2-fluoro-4-hydroxy-3-isopropylbenzyl)phenyl)-N-methylacetamide] | NC
17 | CNC(=O)CSCc1cc(C)c(Cc2ccc(O)c(C(C)C)c2)c(Cl)c1 [Compound 241, 2-((3-chloro-4-(4-hydroxy-3-isopropylbenzyl)-5-methylbenzyl)thio)-N-methylacetamide] | B (ke is greater than 1.0 and less than or equal to 2.5)
18 | CC(C)c1cc(Cc2c(Cl)cc(SCC(=O)N3CCC3)cc2Cl)ccc1O [Compound 183, 1-(azetidin-1-yl)-2-((3,5-dichloro-4-(4-hydroxy-3-isopropylbenzyl)phenyl)thio)ethan-1-one] | A (ke is equal to or less than 1.0)
19 | CNC(=O)CNc1cc(Cl)c(Cc2ccc(O)c(C(C)C)c2F)c(Cl)c1F [Compound 79, 2-((3,5-dichloro-2-fluoro-4-(2-fluoro-4-hydroxy-3-isopropylbenzyl)phenyl)amino)-N-methylacetamide] | A (ke is equal to or less than 1.0)
20 | CCNC(=O)CSc1cc(Cl)c(Cc2ccc(O)c(C(C)C)c2)c(Cl)c1 [Compound 186, 2-((3,5-dichloro-4-(4-hydroxy-3-isopropylbenzyl)phenyl)thio)-N-ethylacetamide] | A (ke is equal to or less than 1.0)
21 | CC(C)CNC(=O)CSc1cc(Cl)c(Cc2ccc(O)c(C(C)C)c2)c(Cl)c1 [Compound 185, 2-((3,5-dichloro-4-(4-hydroxy-3-isopropylbenzyl)phenyl)thio)-N-isobutylacetamide] | NC
22 | Cc1cc(CSCC(=O)NC2CC2)cc(Cl)c1Cc1ccc(O)c(C(C)C)c1 [Compound 229, 2-((3-chloro-4-(4-hydroxy-3-isopropylbenzyl)-5-methylbenzyl)thio)-N-cyclopropylacetamide] | C (ke is greater than 2.5)
23 | CC(C)c1cc(Cc2c(Cl)cc(SCC(=O)NC3CC3)cc2Cl)ccc1O [Compound 180, N-cyclopropyl-2-((3,5-dichloro-4-(4-hydroxy-3-isopropylbenzyl)phenyl)thio)acetamide] | C (ke is greater than 2.5)
24 | CNC(=O)/C(C)=C/c1cc(Cl)c(Cc2ccc(O)c(C(C)C)c2F)c(Cl)c1 [Compound 146, (E)-3-(3,5-dichloro-4-(2-fluoro-4-hydroxy-3-isopropylbenzyl)phenyl)-N,2-dimethylacrylamide] | A (ke is equal to or less than 1.0)
25 | Cc1cc(CSCC(=O)NC2CCCCC2)cc(Cl)c1Cc1ccc(O)c(C(C)C)c1 [Compound 131, 2-((3-chloro-4-(4-hydroxy-3-isopropylbenzyl)-5-methylbenzyl)thio)-N-cyclohexylacetamide] | NC
26 | CC(C)c1cc(Cc2c(Cl)cc(SCC(=O)Nc3ccnnc3)cc2Cl)ccc1O [Compound 173, 2-((3,5-dichloro-4-(4-hydroxy-3-isopropylbenzyl)phenyl)thio)-N-(pyridazin-4-yl)acetamide] | C (ke is greater than 2.5)
27 | CNC(=O)/C=C/c1cc(Cl)c(Cc2ccc(O)c(C(C)C)c2F)c(Cl)c1 [Compound 115, (E)-3-(3,5-dichloro-4-(2-fluoro-4-hydroxy-3-isopropylbenzyl)phenyl)-N-methylacrylamide] | NC
